The source of these data is article PMC11239671, “GolpHCat (TMEM87A), a unique voltage-dependent cation channel in Golgi apparatus, contributes to Golgi-pH maintenance and hippocampus-dependent memory” (Nature Communications, 2024).

Assay [1] concerns the target T1, TMEM87A (GolpHCat) (Homo sapiens, UniProt Q8NBN3).
T1 sequence (Q8NBN3 1-555): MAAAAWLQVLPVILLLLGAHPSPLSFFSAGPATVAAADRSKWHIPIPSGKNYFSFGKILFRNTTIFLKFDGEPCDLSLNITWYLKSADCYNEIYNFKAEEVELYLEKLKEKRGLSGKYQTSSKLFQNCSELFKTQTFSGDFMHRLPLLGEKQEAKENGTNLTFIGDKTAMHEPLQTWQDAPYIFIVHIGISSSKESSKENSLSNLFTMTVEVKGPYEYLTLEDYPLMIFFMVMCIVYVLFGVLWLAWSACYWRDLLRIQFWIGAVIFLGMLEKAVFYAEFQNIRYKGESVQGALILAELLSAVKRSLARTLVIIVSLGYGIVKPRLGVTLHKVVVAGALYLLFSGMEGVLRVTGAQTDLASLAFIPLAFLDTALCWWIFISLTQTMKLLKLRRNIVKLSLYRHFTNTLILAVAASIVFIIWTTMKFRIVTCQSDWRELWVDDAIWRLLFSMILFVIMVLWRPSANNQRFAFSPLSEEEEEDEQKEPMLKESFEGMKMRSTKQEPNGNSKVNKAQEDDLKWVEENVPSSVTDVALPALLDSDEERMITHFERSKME
Briefly: cryo-EM structure at ~[…] Å with […] sodium gluconate; IC50 from whole-cell patch clamp in CHO-K1 cells. The class given is cell-based. Also noted: full-length hTMEM87A, M1-E555 (isoform 1, NP_056312.2), EGFP-Twin-strep tag.

Assay [2] has as its target T2, TMEM87A (GolpHCat) (Homo sapiens, UniProt Q8NBN3, A308M).
T2 construct: full-length hTMEM87A, M1-E555
T2 sequence (Q8NBN3 1-555 A308M): T1 sequence (Q8NBN3 1-555) with A308M
Briefly: cryo-EM structure at ~[…] Å; co-purified lipid density. The class given is binding.

Assay [3] addresses T1, TMEM87A (GolpHCat). Briefly: cryo-EM structure at […] Å; co-purified lipid, assigned from density shape and Golgi lipid composition. Type of assay: binding. Also noted: full-length hTMEM87A, M1-E555; modelled D38-P473.

Where a chain is given by its changes, count along the chain named.

As for `O=C(O)[C@H](O)[C@@H](O)[C@H](O)[C@H](O)CO` [gluconate], the IC50 – broadly, the concentration needed to halve the response being measured – against TMEM87A (GolpHCat) [1] came to 100 nM. This lies in the sub-micromolar range.
As to `CCCCCCCC/C=C\CCCCCCCC(=O)O[C@H](COC(=O)CCCCCCCCCCCCCCC)COP(=O)(O)OCCN` [PE, 1-palmitoyl-2-oleoyl-sn-glycerol-3-phosphoethanolamine], the “cryo-EM structure at ~3.1 Å; co-purified lipid density” value at TMEM87A (GolpHCat) [2] is “the PE density in hTMEM87A A308M was displaced to a position similar to that of the S6 state”. On TMEM87A (GolpHCat) [3], the “cryo-EM structure at 3.1 Å; co-purified lipid, assigned from density shape and G” value was “PE was co-purified with hTMEM87A, suggesting that PE tightly and stably binds to TMEM87A”.
